# Measurements: PubChem BioAssay AID330 (DTP/NCI, 2004)
# Values joined by “and” are separate entries in the source; they are usually repeats but may differ in a detail not shown here. Identical values can stand only once. Toxic doses and inconclusive results are not listed.
# Test system: P388 leukemia ip, CD2F1 mice, survival T/C
# Test: NCI In Vivo Anticancer Drug Screen. Data for tumor model P388 Leukemia (intraperitoneal) in CD2F1 (CDF1) mice
# Conditions: endpoint: median survival time, higher = longer survival
# Outline: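 Mice carrying the transplanted tumor received test compound or vehicle. Survival was recorded in each group, and the value is the treated-group measurement divided by that of the vehicle-treated control group.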
# [1] = dose: 100.0 mg/kg/injection, schedule: Q04DX003 (ip), vehicle: saline with Tween-80
# [2] = dose: 200.0 mg/kg/injection, schedule: Q04DX003 (ip), vehicle: saline with Tween-80
# [3] = dose: 50.0 mg/kg/injection, schedule: Q01DX009 (ip), vehicle: Klucel (hydroxypropylcellulose) (HPC)
# [4] = dose: 100.0 mg/kg/injection, schedule: Q01DX009 (ip), vehicle: Klucel (hydroxypropylcellulose) (HPC)
# [5] = dose: 200.0 mg/kg/injection, schedule: Q01DX009 (ip), vehicle: Klucel (hydroxypropylcellulose) (HPC)
# [6] = dose: 50.0 mg/kg/injection, schedule: Q01DX009 (ip), vehicle: saline
# [7] = dose: 100.0 mg/kg/injection, schedule: Q01DX009 (ip), vehicle: saline
# [8] = dose: 200.0 mg/kg/injection, schedule: Q01DX009 (ip), vehicle: saline
# [9] = dose: 50.0 mg/kg/injection, schedule: Q01DX009 (ip), vehicle: saline with Tween-80
# [10] = dose: 200.0 mg/kg/injection, schedule: Q01DX009 (ip), vehicle: saline with Tween-80
compound,measurement,setting,value
C=C1CC1CC(N)C(=O)O (stereo not drawn),T/C,"dose: 1.25 mg/kg/injection, schedule: Q01DX009 (ip), vehicle: saline",108 % of control
same,T/C,"dose: 2.5 mg/kg/injection, schedule: Q01DX009 (ip), vehicle: saline",96 % of control
same,T/C,"dose: 5.0 mg/kg/injection, schedule: Q01DX009 (ip), vehicle: saline",100 % of control
CC1(c2ccccc2)CCCC(C#N)C1=N (stereo not drawn),T/C,"dose: 12.5 mg/kg/injection, schedule: Q01DX001 (ip), vehicle: Klucel (hydroxypropylcellulose) (HPC)",106 % of control
same,T/C,"dose: 25.0 mg/kg/injection, schedule: Q01DX001 (ip), vehicle: Klucel (hydroxypropylcellulose) (HPC)",100 % of control
same,T/C,"dose: 50.0 mg/kg/injection, schedule: Q01DX001 (ip), vehicle: Klucel (hydroxypropylcellulose) (HPC)",103 % of control
N#CC1C(=O)NN=C1c1cc2ccccc2oc1=O (stereo not drawn),T/C,"dose: 100.0 mg/kg/injection, schedule: Q01DX001 (ip), vehicle: saline",97 % of control
same,T/C,"dose: 200.0 mg/kg/injection, schedule: Q01DX001 (ip), vehicle: saline",100 % of control
same,T/C,"dose: 400.0 mg/kg/injection, schedule: Q01DX001 (ip), vehicle: saline",97 % of control
O=C(CNC(=O)OCc1ccccc1)OC(=O)CNC(=O)OCc1ccccc1,T/C,"dose: 100.0 mg/kg/injection, schedule: Q04DX002 (ip), vehicle: Klucel (hydroxypropylcellulose) (HPC)",96 % of control
same,T/C,"dose: 200.0 mg/kg/injection, schedule: Q04DX002 (ip), vehicle: Klucel (hydroxypropylcellulose) (HPC)",93 % of control
same,T/C,"dose: 400.0 mg/kg/injection, schedule: Q04DX002 (ip), vehicle: Klucel (hydroxypropylcellulose) (HPC)",93 % of control
CCN(Cc1cccc(S(=O)(=O)[O-])c1)c1ccc(C(=C2C=CC(=[N+](CC)Cc3cccc(S(=O)(=O)O)c3)C=C2)c2ccccc2S(=O)(=O)O)cc1,T/C,"dose: 50.0 mg/kg/injection, schedule: Q01DX005 (ip), vehicle: saline",104 % of control
same,T/C,"dose: 100.0 mg/kg/injection, schedule: Q01DX005 (ip), vehicle: saline",96 % of control
same,T/C,"dose: 200.0 mg/kg/injection, schedule: Q01DX005 (ip), vehicle: saline",96 % of control
O=C(O)C(Cc1c[nH]c2ccc(O)cc12)NCC1(O)OCC(O)C(O)C1O (stereo not drawn),T/C,"dose: 60.0 mg/kg/injection, schedule: Q01DX005 (ip), vehicle: saline",97 % of control
same,T/C,"dose: 120.0 mg/kg/injection, schedule: Q01DX005 (ip), vehicle: saline",99 % of control
same,T/C,"dose: 240.0 mg/kg/injection, schedule: Q01DX005 (ip), vehicle: saline",98 % of control
CC(C)c1ccc(/C=N\NC(=S)N/N=C\c2ccc(C(C)C)cc2)cc1,T/C,"dose: 6.25 mg/kg/injection, schedule: Q01DX009 (ip), vehicle: Klucel (hydroxypropylcellulose) (HPC)",96 % of control
same,T/C,"dose: 12.5 mg/kg/injection, schedule: Q01DX009 (ip), vehicle: Klucel (hydroxypropylcellulose) (HPC)",86 % of control
Cc1ccc(S(=O)(=O)NC(CSCc2ccccc2)C(=O)O)cc1 (stereo not drawn),T/C,[1],100 % of control
same,T/C,[2],100 % of control
same,T/C,"dose: 400.0 mg/kg/injection, schedule: Q04DX003 (ip), vehicle: saline with Tween-80",100 % of control
NCCSc1nc(-c2ccccc2)c(-c2ccccc2)o1,T/C,[3],100 % of control
same,T/C,[4],100 % of control
same,T/C,[5],101 % of control
Cc1ccc(OS(=O)(=O)NC(=O)NCc2ccco2)cc1,T/C,[6],92 % of control
same,T/C,[7],101 % of control
same,T/C,[8],105 % of control
O=C(O)CC[n+]1cccc2c1C(=O)C(=O)c1ncccc1-2,T/C,"dose: 100.0 mg/kg/injection, schedule: Q04DX002 (ip), vehicle: saline",114 % of control
same,T/C,"dose: 200.0 mg/kg/injection, schedule: Q04DX002 (ip), vehicle: saline",107 % of control
CCOC(=O)c1ccc(OC)c2[nH]c3c(c(=O)c12)C(=O)c1[nH]c2c(OC)ccc(C(=O)OCC)c2c(=O)c1C3=O,T/C,"dose: 100.0 mg/kg/injection, schedule: Q04DX003 (ip), vehicle: Klucel (hydroxypropylcellulose) (HPC)",97 % of control
same,T/C,"dose: 200.0 mg/kg/injection, schedule: Q04DX003 (ip), vehicle: Klucel (hydroxypropylcellulose) (HPC)",103 % of control
same,T/C,"dose: 400.0 mg/kg/injection, schedule: Q04DX003 (ip), vehicle: Klucel (hydroxypropylcellulose) (HPC)",100 % of control
Cc1cc(NCCCCCCNc2cc(C)[n+](C)c3c(Cl)cccc23)c2cccc(Cl)c2[n+]1C,T/C,"dose: 3.12 mg/kg/injection, schedule: Q01DX005 (ip), vehicle: suspension in saline",108 % of control
same,T/C,"dose: 6.25 mg/kg/injection, schedule: Q01DX005 (ip), vehicle: suspension in saline",99 % of control
same,T/C,"dose: 12.5 mg/kg/injection, schedule: Q01DX005 (ip), vehicle: suspension in saline",108 % of control
S=c1[nH]nc(-c2ccccc2)n1C1CCCCC1,T/C,"dose: 50.0 mg/kg/injection, schedule: Q04DX003 (ip), vehicle: saline with Tween-80",97 % of control
same,T/C,[1],100 % of control
same,T/C,[2],93 % of control
CC1CCC2CC(C3CCCC[N-]3)[N-]C(N)C2C1.CC1CCC2CC(C3CCCC[N-]3)[N-]C(N)C2C1.O=[N+]([O-])O.[Cu+] (stereo not drawn),T/C,"dose: 12.5 mg/kg/injection, schedule: Q04DX002 (ip), vehicle: saline",97 % of control
same,T/C,"dose: 12.5 mg/kg/injection, schedule: Q04DX002 (ip), vehicle: suspension in saline",100 % of control
same,T/C,"dose: 25.0 mg/kg/injection, schedule: Q04DX002 (ip), vehicle: saline",104 % of control
same,T/C,"dose: 25.0 mg/kg/injection, schedule: Q04DX002 (ip), vehicle: suspension in saline",104 % of control and 118 % of control
same,T/C,"dose: 50.0 mg/kg/injection, schedule: Q04DX002 (ip), vehicle: suspension in saline",111 % of control and 114 % of control
same,T/C,"dose: 100.0 mg/kg/injection, schedule: Q04DX002 (ip), vehicle: suspension in saline",103 % of control and 105 % of control and 120 % of control
COc1ccc(C2=CC(c3ccc(OC)cc3)(c3ccc(C(F)(F)F)cc3)C=C(c3ccc(OC)cc3)S2)cc1,T/C,[3],97 % of control
same,T/C,[4],93 % of control
same,T/C,[5],90 % of control
N#CC1(C#N)C2C=CC(C2)N1OC(=O)c1ccc([N+](=O)[O-])cc1 (stereo not drawn),T/C,[9],95 % of control
same,T/C,"dose: 100.0 mg/kg/injection, schedule: Q01DX009 (ip), vehicle: saline with Tween-80",92 % of control
same,T/C,[10],95 % of control
CS(=O)(=O)/C=C/c1cccc(O)c1,T/C,[3],97 % of control
same,T/C,[4],96 % of control
same,T/C,[5],89 % of control
COP(=O)(O)OC.[U],T/C,"dose: 3.12 mg/kg/injection, schedule: Q01DX009 (ip), vehicle: saline with Tween-80",118 % of control
same,T/C,"dose: 6.25 mg/kg/injection, schedule: Q01DX009 (ip), vehicle: saline with Tween-80",118 % of control
COC1=CC(O)(CC(N)=O)c2ccccc2C1=O (stereo not drawn),T/C,"dose: 3.13 mg/kg/injection, schedule: Q01DX009 (ip), vehicle: distilled water + Tween-80",99 % of control
same,T/C,"dose: 6.25 mg/kg/injection, schedule: Q01DX009 (ip), vehicle: distilled water + Tween-80",100 % of control
same,T/C,"dose: 12.5 mg/kg/injection, schedule: Q01DX009 (ip), vehicle: distilled water + Tween-80",98 % of control
same,T/C,"dose: 25.0 mg/kg/injection, schedule: Q01DX009 (ip), vehicle: distilled water + Tween-80",102 % of control
same,T/C,"dose: 50.0 mg/kg/injection, schedule: Q01DX009 (ip), vehicle: distilled water + Tween-80",92 % of control
same,T/C,"dose: 100.0 mg/kg/injection, schedule: Q01DX009 (ip), vehicle: distilled water + Tween-80",92 % of control
CN1CCc2c(n(C)c3ccccc23)C1=O,T/C,"dose: 25.0 mg/kg/injection, schedule: Q04DX002 (ip), vehicle: saline with Tween-80",102 % of control
same,T/C,"dose: 50.0 mg/kg/injection, schedule: Q04DX002 (ip), vehicle: saline with Tween-80",98 % of control
same,T/C,"dose: 100.0 mg/kg/injection, schedule: Q04DX002 (ip), vehicle: saline with Tween-80",106 % of control
same,T/C,"dose: 200.0 mg/kg/injection, schedule: Q04DX002 (ip), vehicle: saline with Tween-80",101 % of control
same,T/C,"dose: 400.0 mg/kg/injection, schedule: Q04DX002 (ip), vehicle: saline with Tween-80",99 % of control
N#Cc1ccc(NC(=O)Nc2cccc(C#N)c2)cc1,T/C,"dose: 30.0 mg/kg/injection, schedule: Q01DX005 (ip), vehicle: saline with Tween-80",100 % of control and 103 % of control
same,T/C,"dose: 60.0 mg/kg/injection, schedule: Q01DX005 (ip), vehicle: saline with Tween-80",89 % of control and 92 % of control and 94 % of control
same,T/C,"dose: 120.0 mg/kg/injection, schedule: Q01DX005 (ip), vehicle: saline with Tween-80",91 % of control and 94 % of control
same,T/C,"dose: 240.0 mg/kg/injection, schedule: Q01DX005 (ip), vehicle: saline with Tween-80",94 % of control
Cc1cnc2ccccc2c1/C=C/c1ccc(N(C)C)cc1,T/C,[9],124 % of control
same,T/C,[10],153 % of control
same,T/C,"dose: 400.0 mg/kg/injection, schedule: Q01DX009 (ip), vehicle: saline with Tween-80",120 % of control
CCOC([O-])=N/C(C)=N/[n+]1ccccc1,T/C,[6],104 % of control
same,T/C,[7],104 % of control
same,T/C,[8],98 % of control
